Experimental data: ChEMBL document CHEMBL3124886, “Potent Hepatitis C Virus NS5A Inhibitors Containing a Benzidine Core” (ACS Med Chem Lett, 2014)
One block for each compound: values may come before it.

What was measured:
Hepatitis C virus [1] = test: Antiviral activity against Hepatitis C virus type 2a expressing JFH1 assessed as inhibition of infection in human Huh7.5.1 cells after 3 days by luciferase reporter gene assay; assay type: functional, organism-based, Hepacivirus hominis; details: genotype 2a, Huh-7, 72 h
Hepatitis C virus [2] = test: Antiviral activity against Hepatitis C virus genotype 1b expressed in human Huh7.5.1 cells coexpressing NKR2AN after 3 days by luciferase reporter gene assay; assay type: functional, organism-based, Hepacivirus hominis; details: Huh-7, 72 h
[3] = Selectivity index, ratio of cytotoxicity for human Huh7.5.1 cells to EC50 for Hepatitis C virus genotype 1b; assay type: toxicity, cell-based, Huh-7; details: read-out: Selectivity Index
[4] = Cytotoxicity against human Huh7.5.1 cells; assay type: cell-based; details: huh-7
[5] = Selectivity index, ratio of cytotoxicity for human Huh7.5.1 cells to EC50 for Hepatitis C virus type 2a; assay type: toxicity, cell-based, Huh-7; details: read-out: Selectivity Index
CYP2D6 = CYP2D6 (Homo sapiens, UniProt P10635); test: Inhibition of CYP2D6 (unknown origin) at 10 uM relative to control; assay type: ADME
[6] = Metabolic stability in rat plasma assessed as compound remaining at 2 uM after 1 hr; assay type: ADME, cell-free; details: read-out: Stability
CYP2C9 = CYP2C9 (Homo sapiens, UniProt P11712); test: Inhibition of CYP2C9 (unknown origin) at 10 uM relative to control; assay type: ADME
[7] = Metabolic stability in rat plasma assessed as compound remaining at 2 uM after 4 hrs; assay type: ADME, cell-free; details: read-out: Stability
[8] = Metabolic stability in rat plasma assessed as compound remaining at 2 uM after 0.5 hrs; assay type: ADME, cell-free; details: read-out: Stability
CYP1A2 = target: T1, CYP1A2 (Homo sapiens, UniProt P05177); test: Inhibition of CYP1A2 (unknown origin) at 10 uM relative to control; assay type: ADME
T1 sequence (P05177 whole entry): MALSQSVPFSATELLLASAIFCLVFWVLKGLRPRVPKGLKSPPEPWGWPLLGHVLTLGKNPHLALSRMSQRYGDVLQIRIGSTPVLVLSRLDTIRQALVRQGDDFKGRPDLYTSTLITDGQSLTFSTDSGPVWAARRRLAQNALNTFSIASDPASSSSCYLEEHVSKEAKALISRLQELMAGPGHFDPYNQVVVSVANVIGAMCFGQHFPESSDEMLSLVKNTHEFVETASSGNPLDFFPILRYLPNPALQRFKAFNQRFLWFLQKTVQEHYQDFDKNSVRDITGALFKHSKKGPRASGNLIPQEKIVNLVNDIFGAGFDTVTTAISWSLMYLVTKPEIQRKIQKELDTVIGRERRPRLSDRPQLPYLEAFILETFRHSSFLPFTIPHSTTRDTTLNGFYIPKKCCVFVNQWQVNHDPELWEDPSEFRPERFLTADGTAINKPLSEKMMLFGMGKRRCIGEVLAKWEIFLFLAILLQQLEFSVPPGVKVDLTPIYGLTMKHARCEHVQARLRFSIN

CYP3A4 = CYP3A4 (Homo sapiens, UniProt P08684); test: Inhibition of CYP3A4 (unknown origin) at 10 uM relative to control; assay type: ADME
[9] = target: Voltage-gated inwardly rectifying potassium channel KCNH2 (Homo sapiens, UniProt Q12809); test: Binding affinity to human ERG by fluorescence polarization assay
Voltage-gated inwardly rectifying potassium channel KCNH2, sequence (Q12809 whole entry): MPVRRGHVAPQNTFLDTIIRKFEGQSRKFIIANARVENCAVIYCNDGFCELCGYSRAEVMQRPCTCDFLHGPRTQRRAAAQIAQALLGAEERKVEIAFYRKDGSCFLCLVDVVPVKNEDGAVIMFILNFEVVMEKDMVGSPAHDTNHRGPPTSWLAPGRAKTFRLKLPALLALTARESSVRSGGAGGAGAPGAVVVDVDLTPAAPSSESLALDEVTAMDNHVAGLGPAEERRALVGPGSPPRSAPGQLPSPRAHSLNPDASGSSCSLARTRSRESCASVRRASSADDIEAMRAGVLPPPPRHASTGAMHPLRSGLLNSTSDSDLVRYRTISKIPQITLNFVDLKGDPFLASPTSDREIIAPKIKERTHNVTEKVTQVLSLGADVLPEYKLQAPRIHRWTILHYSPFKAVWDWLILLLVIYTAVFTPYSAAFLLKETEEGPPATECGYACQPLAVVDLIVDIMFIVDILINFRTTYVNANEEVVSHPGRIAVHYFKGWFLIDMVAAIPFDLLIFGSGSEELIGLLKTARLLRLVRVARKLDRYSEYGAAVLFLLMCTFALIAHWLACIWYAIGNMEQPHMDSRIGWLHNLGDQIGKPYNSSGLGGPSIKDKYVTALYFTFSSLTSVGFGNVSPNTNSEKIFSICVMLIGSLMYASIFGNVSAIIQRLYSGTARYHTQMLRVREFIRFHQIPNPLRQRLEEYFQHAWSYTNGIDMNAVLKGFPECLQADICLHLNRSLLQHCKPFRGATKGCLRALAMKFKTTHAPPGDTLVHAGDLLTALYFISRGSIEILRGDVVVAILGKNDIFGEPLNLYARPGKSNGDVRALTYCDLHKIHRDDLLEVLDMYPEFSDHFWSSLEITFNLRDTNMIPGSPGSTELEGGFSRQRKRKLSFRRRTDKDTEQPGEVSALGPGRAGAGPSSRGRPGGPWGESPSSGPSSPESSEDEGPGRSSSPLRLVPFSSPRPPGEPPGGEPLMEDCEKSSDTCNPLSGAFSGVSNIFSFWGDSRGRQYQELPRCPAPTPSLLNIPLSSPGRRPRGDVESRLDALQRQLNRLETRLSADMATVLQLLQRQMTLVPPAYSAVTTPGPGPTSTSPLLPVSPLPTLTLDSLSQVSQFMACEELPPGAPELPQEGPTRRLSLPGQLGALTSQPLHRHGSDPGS

CYP3A4, sequence (P08684 whole entry): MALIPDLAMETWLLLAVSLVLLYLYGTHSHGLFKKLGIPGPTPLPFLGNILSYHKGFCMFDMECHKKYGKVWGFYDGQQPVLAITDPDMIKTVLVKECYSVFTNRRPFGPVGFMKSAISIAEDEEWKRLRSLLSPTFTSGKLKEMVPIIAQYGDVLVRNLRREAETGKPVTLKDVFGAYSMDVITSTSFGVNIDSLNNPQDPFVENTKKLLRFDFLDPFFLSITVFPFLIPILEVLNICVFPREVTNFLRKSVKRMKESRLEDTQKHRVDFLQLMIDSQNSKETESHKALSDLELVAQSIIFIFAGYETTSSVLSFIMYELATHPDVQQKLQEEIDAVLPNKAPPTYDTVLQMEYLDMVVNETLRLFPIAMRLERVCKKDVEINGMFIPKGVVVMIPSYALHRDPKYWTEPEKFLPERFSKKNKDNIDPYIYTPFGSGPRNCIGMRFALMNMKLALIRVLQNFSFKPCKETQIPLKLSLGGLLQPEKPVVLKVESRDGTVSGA
CYP2C9, sequence (P11712 whole entry): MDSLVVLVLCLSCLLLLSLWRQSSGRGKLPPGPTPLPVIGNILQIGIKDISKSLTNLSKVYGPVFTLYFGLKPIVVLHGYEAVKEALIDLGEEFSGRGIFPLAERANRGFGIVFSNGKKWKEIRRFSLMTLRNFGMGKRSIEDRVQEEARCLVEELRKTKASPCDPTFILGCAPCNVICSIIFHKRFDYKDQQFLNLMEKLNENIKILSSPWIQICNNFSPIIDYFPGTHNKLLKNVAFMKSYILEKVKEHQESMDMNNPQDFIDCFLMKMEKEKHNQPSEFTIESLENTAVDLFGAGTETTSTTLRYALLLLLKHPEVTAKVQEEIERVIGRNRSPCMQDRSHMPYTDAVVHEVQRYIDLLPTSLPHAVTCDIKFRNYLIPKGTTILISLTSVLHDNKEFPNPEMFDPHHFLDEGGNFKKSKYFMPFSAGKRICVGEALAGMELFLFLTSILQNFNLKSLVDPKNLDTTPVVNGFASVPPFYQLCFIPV
CYP2D6, sequence (P10635 whole entry): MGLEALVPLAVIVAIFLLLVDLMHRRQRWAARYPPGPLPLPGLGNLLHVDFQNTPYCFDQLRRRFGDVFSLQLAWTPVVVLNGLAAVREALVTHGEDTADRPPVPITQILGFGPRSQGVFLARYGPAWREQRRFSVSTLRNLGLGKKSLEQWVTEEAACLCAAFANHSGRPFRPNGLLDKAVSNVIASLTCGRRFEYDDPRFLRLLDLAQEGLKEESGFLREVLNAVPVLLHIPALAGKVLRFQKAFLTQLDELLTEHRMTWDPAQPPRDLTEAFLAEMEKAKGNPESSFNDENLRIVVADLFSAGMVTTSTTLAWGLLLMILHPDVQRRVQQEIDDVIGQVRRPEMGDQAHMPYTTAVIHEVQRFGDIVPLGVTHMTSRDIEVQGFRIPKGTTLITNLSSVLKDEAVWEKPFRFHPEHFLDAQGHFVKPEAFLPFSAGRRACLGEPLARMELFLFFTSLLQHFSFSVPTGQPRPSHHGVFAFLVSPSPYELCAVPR

SMILES: CCN(CC)[C@@H](C(=O)N1CCC[C@H]1C(=O)Nc1ccc(-c2ccc(NC(=O)[C@@H]3CCCN3C(=O)[C@@H](c3ccccc3)N(CC)CC)cc2)cc1)c1ccccc1
EC50 (Hepatitis C virus [2]): 0.27 nM | selectivity ratio [3]: > 93000 | Activity [4]: > 25 µM | EC50 (Hepatitis C virus [1]): 2.2 nM | selectivity ratio [5]: > 11000

SMILES: C=C[C@H]1C[N@@]2CC[C@H]1C[C@@H]2[C@@H](O)c1ccnc2ccc(OC)cc12 [QUINIDINE]
inhibition at 10 µM (CYP2D6): 95.1%

SMILES: COC(=O)N[C@@H](C(=O)N1CCC[C@H]1C(=O)Nc1ccc(-c2ccc(NC(=O)[C@@H]3CCCN3C(=O)[C@H](NC(=O)OC)c3ccccc3)cc2)cc1)c1ccccc1
remaining at 1 h, 2 µM [6]: > 99% | inhibition at 10 µM (CYP2C9): 0% | EC50 (Hepatitis C virus [2]): 0.028 nM | selectivity ratio [3]: > 893000 | remaining at 4 h, 2 µM [7]: > 99% | Activity [4]: > 25 µM | inhibition at 10 µM (CYP2D6): 0% | remaining at 0.5 h, 2 µM [8]: > 99% | inhibition at 10 µM (CYP1A2): 18.1% | inhibition at 10 µM (CYP3A4): 23.9% | EC50 (Hepatitis C virus [1]): 0.26 nM | selectivity ratio [5]: > 96000 | EC50 [9]: 9800 nM

SMILES: CC(=O)N1CCN(c2ccc(OCC3COC(Cn4ccnc4)(c4ccc(Cl)cc4Cl)O3)cc2)CC1 (racemic) [KETOCONAZOLE]
inhibition at 10 µM (CYP3A4): 95.3%

SMILES: O=c1cc(-c2ccccc2)oc2c1ccc1ccccc12 [ALPHA-NAPHTHOFLAVONE]
inhibition at 10 µM (CYP1A2): 98.6%

SMILES: Nc1ccc(S(=O)(=O)Nc2ccnn2-c2ccccc2)cc1 [SULFAPHENAZOLE]
inhibition at 10 µM (CYP2C9): 75.8%

Continued, in another order:

EC50 (Hepatitis C virus [1]): 120 nM
SMILES: COC(=O)N[C@H](C(=O)N1CCC[C@H]1C(=O)Nc1ccc(-c2ccc(NC(=O)[C@@H]3CCCN3C(=O)[C@@H](NC(=O)OC)C(C)C)cc2)cc1)C(C)C

EC50 (Hepatitis C virus [1]): 24 nM
SMILES: COC(=O)N[C@H](C(=O)N1CCC[C@H]1C(=O)Nc1ccc(-c2ccc(NC(=O)[C@@H]3CCCN3C(=O)[C@@H](NC(=O)OC)C(C)(C)C)cc2)cc1)C(C)(C)C

EC50 (Hepatitis C virus [2]): 0.43 nM | EC50 (Hepatitis C virus [1]): 2.3 nM
SMILES: CN(C)[C@@H](C(=O)N1CCC[C@H]1C(=O)Nc1ccc(-c2ccc(NC(=O)[C@@H]3CCCN3C(=O)[C@@H](c3ccccc3)N(C)C)cc2)cc1)c1ccccc1
selectivity ratio [3]: > 58000 | Activity [4]: > 25 µM | selectivity ratio [5]: > 11000

EC50 (Hepatitis C virus [1]): 15 nM
SMILES: COC(=O)N[C@@H](C(=O)N1CCC[C@H]1C(=O)Nc1ccc(-c2ccc(NC(=O)[C@@H]3CCCN3C(=O)[C@H](NC(=O)OC)C(C)C)cc2)cc1)C(C)C

EC50 (Hepatitis C virus [1]): > 1000 nM
SMILES: COC(=O)N[C@@H](C)C(=O)N1CCC[C@H]1C(=O)Nc1ccc(-c2ccc(NC(=O)[C@@H]3CCCN3C(=O)[C@H](C)NC(=O)OC)cc2)cc1

EC50 (Hepatitis C virus [1]): 400 nM
SMILES: O=C(Nc1ccc(-c2ccc(NC(=O)[C@@H]3CCCN3C(=O)[C@H]3CCCO3)cc2)cc1)[C@@H]1CCCN1C(=O)[C@H]1CCCO1
